Data from ChEMBL document CHEMBL6109170, “Integrated Advancements in Neuroplasticity, Psychedelic Therapeutics, and AI-Driven Innovations for Precision Medicine” (ACS Med Chem Lett, 2025).

target: 5-hydroxytryptamine receptor 2A (Homo sapiens, UniProt P28223); experiment: Binding affinity to 5-HT2A receptor (unknown origin) assessed as inhibition constant by radioligand binding assay
Sequence (P28223 whole entry): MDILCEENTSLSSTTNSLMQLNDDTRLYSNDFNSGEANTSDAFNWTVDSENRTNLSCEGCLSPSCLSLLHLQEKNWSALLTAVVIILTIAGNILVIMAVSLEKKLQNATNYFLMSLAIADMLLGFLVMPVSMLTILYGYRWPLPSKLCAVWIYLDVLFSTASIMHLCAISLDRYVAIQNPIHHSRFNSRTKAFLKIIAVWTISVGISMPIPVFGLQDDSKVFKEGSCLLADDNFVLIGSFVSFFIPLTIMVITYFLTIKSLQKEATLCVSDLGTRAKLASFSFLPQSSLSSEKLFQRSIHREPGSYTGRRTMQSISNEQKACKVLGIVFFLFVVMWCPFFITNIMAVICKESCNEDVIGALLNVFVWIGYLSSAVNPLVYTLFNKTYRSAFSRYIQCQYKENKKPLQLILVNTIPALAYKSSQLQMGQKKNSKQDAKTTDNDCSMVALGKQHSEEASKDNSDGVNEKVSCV

Structure (SMILES) | Ki
CC(C)N(CCc1c(Br)[nH]c2ccccc12)C(C)C | > 10 µM

target: T1, 5-hydroxytryptamine receptor 1A (Homo sapiens, UniProt P08908); experiment: Binding affinity to 5HT1A receptor (unknown origin) assessed as inhibition constant by radioligand binding assay
T1 sequence (P08908 whole entry): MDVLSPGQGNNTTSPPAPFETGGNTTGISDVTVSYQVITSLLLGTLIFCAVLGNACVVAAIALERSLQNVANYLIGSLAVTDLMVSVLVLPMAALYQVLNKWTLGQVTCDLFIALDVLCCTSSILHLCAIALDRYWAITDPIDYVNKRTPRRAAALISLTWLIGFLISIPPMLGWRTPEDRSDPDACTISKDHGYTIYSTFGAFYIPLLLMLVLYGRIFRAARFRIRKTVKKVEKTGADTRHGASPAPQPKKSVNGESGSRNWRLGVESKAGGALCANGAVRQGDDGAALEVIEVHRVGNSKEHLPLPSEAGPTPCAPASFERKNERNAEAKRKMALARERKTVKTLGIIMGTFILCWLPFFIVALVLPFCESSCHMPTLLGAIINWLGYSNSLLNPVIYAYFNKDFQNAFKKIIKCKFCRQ

Structure (SMILES) | Ki
CC(=O)Oc1cccc2[nH]c(Br)c(CCN(C)C)c12 | > 10 µM
CN(C)CCc1c(Cl)[nH]c2ccccc12 | > 10 µM
CC(=O)Oc1cccc2[nH]cc(CCN(C)C)c12 | > 10 µM
CC(=O)Nc1cccc2[nH]cc(CCN(C)C)c12 | > 10 µM
CC(C)N(CCc1c(Br)[nH]c2ccccc12)C(C)C | > 10 µM
